# Experimental data published in paper PMC9663428, “The protein conformational basis of isoflavone biosynthesis” (Communications Biology, 2022).
# Target: T1, 2-HID (Pueraria montana, UniProt E9M5G1)
# T1 construct: His-tagged (Ni-NTA) from pDEST17, expressed in E. coli BL21(DE3); first eight residues not observed; one molecule per asymmetric unit
# T1 sequence (E9M5G1 1-325): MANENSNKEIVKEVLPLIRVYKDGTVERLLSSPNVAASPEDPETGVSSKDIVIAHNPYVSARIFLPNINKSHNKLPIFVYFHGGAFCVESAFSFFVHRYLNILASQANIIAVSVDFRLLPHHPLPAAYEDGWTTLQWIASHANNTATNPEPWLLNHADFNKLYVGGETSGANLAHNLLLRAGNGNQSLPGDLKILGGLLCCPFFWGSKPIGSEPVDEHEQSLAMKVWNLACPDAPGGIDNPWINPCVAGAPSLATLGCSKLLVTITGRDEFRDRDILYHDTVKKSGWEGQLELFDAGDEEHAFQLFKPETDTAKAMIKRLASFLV
# Assay: X-ray crystal structure, co-crystallization, […] Å
# Type: binding
# Conditions: carboxylesterase product; active site, hydrogen bond to Thr168; complex is 8EA1 or 8EA2, paper does not say which
structure (smiles),measurement,value
O=[N+]([O-])c1ccc(O)cc1 [p-nitrophenol],"X-ray crystal structure, co-crystallization, 2.3 Å","only a structure of 2-HID complexed with p-nitrophenol, a product of the carboxylesterase reaction"
